Reference: the supplement of paper PMC10307832

Legend:
Assay in all cases: relative viability (nuclei count vs DMSO), 5 days (fraction); higher = more cells survive
[1] = compound: CC(O)(CS(=O)(=O)c1ccc(F)cc1)C(=O)Nc1ccc(C#N)c(C(F)(F)F)c1 [Bicalutamide] + NC(=O)Nc1cc(-c2cccc(F)c2)sc1C(=O)N[C@H]1CCCNC1 [AZD7762] (partner 0.2 µM)
Procedure, shortened: (§1)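 Five library-drug doses in √10 steps were combined with a fixed anchor-drug dose, or a single drug was given alone, by pin tool to lung cancer cell lines in 1536-well plates the day after seeding. Nuclei were stained and counted after 5 days. Relative viability is the nuclei count in treated wells over that in vehicle wells, taken as the median of duplicate plates.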

[2] = compound: C(C(=O)C(=O)O)Br [Bromopyruvate] + CC(C)C[C@H](NC(=O)[C@H](Cc1ccccc1)NC(=O)c1cnccn1)B(O)O [Bortezomib] (partner 0.002 µM)
Procedure, shortened: as §1

[3] = compound: CC(O)(CS(=O)(=O)c1ccc(F)cc1)C(=O)Nc1ccc(C#N)c(C(F)(F)F)c1 [Bicalutamide] + N=C(N)NC(=N)NCCc1ccccc1 [Phenformin] (partner 250 µM)
Procedure, shortened: as §1

[4] = compound: C(C(=O)C(=O)O)Br [Bromopyruvate] + O=C(CCCCCCC(=O)Nc1ccccc1)NO [Vorinostat] (partner 1 µM)
Procedure, shortened: as §1

Cell Line	relative viability ([1]; first compound 0.08 µM)	relative viability ([1]; first compound 0.253 µM)	relative viability ([1]; first compound 0.8 µM)	relative viability ([1]; first compound 2.53 µM)	relative viability ([2]; first compound 1 µM)	relative viability ([2]; first compound 3.162 µM)	relative viability ([2]; first compound 10 µM)	relative viability ([2]; first compound 31.62 µM)	relative viability ([2]; first compound 100 µM)	relative viability ([3]; first compound 0.08 µM)	relative viability ([3]; first compound 0.253 µM)	relative viability ([3]; first compound 0.8 µM)	relative viability ([3]; first compound 2.53 µM)	relative viability ([4]; first compound 1 µM)	relative viability ([4]; first compound 3.162 µM)	relative viability ([4]; first compound 10 µM)	relative viability ([4]; first compound 31.62 µM)	relative viability ([4]; first compound 100 µM)
CAL-12T	0.729	0.655	0.703	0.68	1.04	1.08	0.904	0.977	0.934	0.609	0.505	0.626	0.493	0.696	0.769	0.762	0.705	0.489
NCI-H596	1.13	1.04	1.08	1.11	–	1.14	1.01	0.915	1.03	0.586	0.643	0.794	0.897	0.572	0.633	0.628	0.584	0.757
NCI-H1755	0.382	0.388	0.475	0.365	0.967	0.938	0.994	1.01	1.03	0.651	0.595	0.596	0.551	0.862	0.819	0.682	0.768	0.651
NCI-H2085	0.983	0.99	1.02	0.901	1.07	1.18	1.15	1	0.792	0.742	0.686	0.781	0.608	0.769	0.81	0.798	0.764	0.862
